# Source: paper PMC5259791 (Scientific Reports, 2017)
# Legend:
# HT-29 cells = assay: HT-29 cell growth (cell counting)
# Description: Data are the mean ± SD of three independent experiments performed in duplicate giving similar results. Significance is indicated as *p ≤ 0.05, **p ≤ 0.01 and ***p ≤ 0.001. (b) HT29 cells were seeded in 24-well in order to reach the density of cells/cm^2 in standard conditions (10^5 cells). […] The experiments were performed in triplicate and the data expressed as mean ± SD. Significance is indicated as **p ≤ 0.01 and ***p ≤ 0.001.
# PPARα = target: T1, PPARα (Homo sapiens, UniProt Q07869); assay: SPR on immobilized PPARα; format: binding
# T1 construct: purchased Tebu-Bio
# T1 sequence (Q07869 1-468): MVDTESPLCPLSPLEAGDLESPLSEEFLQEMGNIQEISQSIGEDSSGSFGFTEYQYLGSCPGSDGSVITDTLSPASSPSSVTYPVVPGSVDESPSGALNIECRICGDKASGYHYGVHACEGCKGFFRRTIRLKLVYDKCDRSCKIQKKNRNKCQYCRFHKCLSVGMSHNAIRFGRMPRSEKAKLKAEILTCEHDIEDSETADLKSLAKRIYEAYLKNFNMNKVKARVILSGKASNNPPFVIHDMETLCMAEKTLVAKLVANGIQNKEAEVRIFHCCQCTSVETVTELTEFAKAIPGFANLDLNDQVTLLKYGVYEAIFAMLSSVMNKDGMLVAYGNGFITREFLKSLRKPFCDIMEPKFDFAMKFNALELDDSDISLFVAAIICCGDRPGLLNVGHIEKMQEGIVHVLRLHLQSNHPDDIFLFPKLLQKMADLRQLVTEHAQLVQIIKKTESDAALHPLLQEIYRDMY
# Description: In order to evaluate if 1 acts as a selective ligand of PPARγ, SPR analyses were also carried out on immobilized PPARα and PPARδ, two proteins structurally and functionally related to PPARγ[23][24].
# SPR analyses were carried out on a BIACORE 3000 instrument (GE-Healthcare). PPARα, PPARγ, PPARδ and HSP60 surfaces were prepared on research−grade CM5 sensor chips (GE Healthcare). Proteins (100 μg/ml in 10 mM CH3COONa, pH 5.0) were immobilized using a standard amine−coupling protocol, to obtain densities of 3–5 kRU. Testing compounds were dissolved in 100% DMSO to obtain 4 mM solutions, and then diluted in PBS containing variable amounts of DMSO, achieving a final DMSO concentration of 0.1%. For each molecule a five−point concentration series (25 nM, 65 nM, 150 nM, 400 nM, 1 μM) was set up. SPR experiments and data elaboration were carried out as reported elsewhere.
# PPARγ1 C285A mutant = target: T2, PPARγ1 C285A mutant (Homo sapiens, UniProt P37231, C313A); assay: PPRE-luciferase transactivation in HEK293T cells co-transfected with PPARγ1 C285A mutant; format: cell-based; conditions: C285A mutant versus wild type receptor, 24 h
# T2 construct: expressed in transfected cells; host or cells: HEK293T (transient); vectors from Takuma Shiraki
# T2 sequence (P37231 1-477 isoform P37231-2 C285A): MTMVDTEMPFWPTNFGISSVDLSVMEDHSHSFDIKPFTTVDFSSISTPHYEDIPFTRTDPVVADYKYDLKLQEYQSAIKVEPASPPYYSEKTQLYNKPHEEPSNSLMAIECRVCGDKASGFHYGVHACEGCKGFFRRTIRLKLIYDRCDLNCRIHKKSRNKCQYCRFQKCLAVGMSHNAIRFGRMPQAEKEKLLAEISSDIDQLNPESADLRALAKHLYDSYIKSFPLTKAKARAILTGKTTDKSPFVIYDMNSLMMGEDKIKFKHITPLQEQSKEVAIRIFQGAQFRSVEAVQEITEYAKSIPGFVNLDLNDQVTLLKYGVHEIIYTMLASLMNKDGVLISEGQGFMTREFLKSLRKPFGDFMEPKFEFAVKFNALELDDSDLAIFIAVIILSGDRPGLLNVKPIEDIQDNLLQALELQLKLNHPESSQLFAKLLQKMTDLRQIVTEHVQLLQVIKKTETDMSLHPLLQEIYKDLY
# Excerpt: (b) Human HEK293T cells were co-transfected with the PPRE-luciferase reporter gene and the wild-type PPARγ1 or its mutant version (C285A).
# HEK293 cells that stably express an exogenous Flag-tagged PPARγ from a transfected PCDNA-3 vector carrying a complete PPARγ cDNA were used for transfection experiments. The PPRE-Luc plasmid contains a luciferase reporter gene under the transcriptional control of three copies of the PPRE (Peroxisome Proliferator Response Element) derived from Acyl-CoA oxidase gene fused upstream to the herpes simplex thymidine kinase (TK) promoter, as described. […] Transient transfection assays were carried out as described in ref. [44]. […] In this case, the experiments were carried out into basal HEK293T cells and the RSV-β-Gal plasmid was used as control for transfection efficiency. […] The wild type and mutant PPARγ containing expression vectors were kindly provided by Dott. Takuma Shiraki. At least three independent experiments were performed for each transfection carried out in duplicate. Luciferase activity was normalized to β-galactosidase activity and reported as fold-induction.
smiles,measurement,setting,value
"C=C1C(=O)C23CCC4C(C(=O)OC)CC(O)CC4(C)C2CCC1C3 (stereo not drawn) [Compound 1, 15-ketoatractyligenin methyl ester]",inhibition of cell growth,"HT-29 cells; 1, 5 and 10 μM for 24 and 48 h",more pronounced dosage-dependent inhibition of cell growth than Rosiglitazone
same,cell counts after GW9662 pre-treatment versus compound alone,"HT-29 cells; GW9662 10 μM 6 h, then compound 10 μM for 24 and 48 h",increased cell counts
same,interaction with PPARα,PPARα,only a weak interaction
same,time to complete dissociation of complex,PPARα; 1/PPARα complex,less than 50 s
same,Kd,PPARα; immobilized PPARα,1320 ± 80 nM
same,luciferase activity with C285A mutant,PPARγ1 C285A mutant,even lower luciferase activity
